Experiments:
[1] = molecular target: 5-hydroxytryptamine receptor 4 (Homo sapiens, UniProt Q13639); experiment: Radioligand Binding Assay (Ki) and cAMP Accumulation Assay (EC50); conditions: pH 7.4; 25 °C
Experimental: Nonspecific binding was determined with 10 uM GR113808. After incubation, the reaction was terminated by filtration through Whatman GF/B. Radioactivity was measured using a Beckman model LS6500C liquid scintillation counter. Binding data are expressed as a percentage of displacement for the screening of the library compounds. For selected compounds, Ki were analyzed by computer-assisted nonlinear regression analysis (Prism, Graphpad Software, San Diego, CA). EC50 values correspond to the concentration of agonists required to obtain half maximal stimulation of adenylyl cyclase. […] The data are the results of two or three independent determinations performed in triplicate.

[2] = molecular target: Amyloid-beta precursor protein (Homo sapiens) (UniProt P05067); experiment: EC/IC50 was the effective concentration of agonist inhibiting the formation of A-beta fibrils to 50% of the control value. Three independent measurements were made for all cases.
Amyloid-beta precursor protein (Homo sapiens), sequence (P05067 whole entry, looked up): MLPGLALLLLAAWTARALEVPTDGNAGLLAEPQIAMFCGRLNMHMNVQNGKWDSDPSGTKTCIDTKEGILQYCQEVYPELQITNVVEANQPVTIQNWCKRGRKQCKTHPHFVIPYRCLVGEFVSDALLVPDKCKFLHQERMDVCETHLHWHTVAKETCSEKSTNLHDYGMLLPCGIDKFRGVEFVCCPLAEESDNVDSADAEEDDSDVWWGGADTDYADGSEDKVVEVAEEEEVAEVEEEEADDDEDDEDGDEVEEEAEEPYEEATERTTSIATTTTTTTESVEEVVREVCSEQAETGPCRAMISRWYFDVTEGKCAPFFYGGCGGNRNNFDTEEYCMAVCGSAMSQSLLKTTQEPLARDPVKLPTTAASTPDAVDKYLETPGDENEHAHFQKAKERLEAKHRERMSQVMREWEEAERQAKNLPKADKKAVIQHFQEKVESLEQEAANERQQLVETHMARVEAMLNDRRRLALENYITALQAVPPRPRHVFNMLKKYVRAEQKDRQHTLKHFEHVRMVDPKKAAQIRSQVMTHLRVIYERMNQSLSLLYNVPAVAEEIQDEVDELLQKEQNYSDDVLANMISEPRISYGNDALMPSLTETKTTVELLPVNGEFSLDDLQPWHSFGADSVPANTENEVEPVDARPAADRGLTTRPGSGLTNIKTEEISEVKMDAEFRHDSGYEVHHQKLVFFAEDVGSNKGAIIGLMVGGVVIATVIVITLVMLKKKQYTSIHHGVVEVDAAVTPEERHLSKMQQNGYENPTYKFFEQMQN

5-hydroxytryptamine receptor 4, sequence (Q13639 whole entry): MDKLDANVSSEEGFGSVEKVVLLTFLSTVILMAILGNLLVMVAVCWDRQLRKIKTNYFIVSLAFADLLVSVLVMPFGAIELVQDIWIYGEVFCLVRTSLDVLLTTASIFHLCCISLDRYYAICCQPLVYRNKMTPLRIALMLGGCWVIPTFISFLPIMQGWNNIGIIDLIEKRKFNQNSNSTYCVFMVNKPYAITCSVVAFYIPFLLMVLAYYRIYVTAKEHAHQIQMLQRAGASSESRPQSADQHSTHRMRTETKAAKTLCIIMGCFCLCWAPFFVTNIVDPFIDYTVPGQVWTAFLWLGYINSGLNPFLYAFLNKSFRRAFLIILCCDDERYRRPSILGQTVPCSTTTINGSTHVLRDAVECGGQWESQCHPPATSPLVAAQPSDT

SMILES | EC50 [1] [nM] | Ki [1] [nM] | EC50 [2] [nM]
COc1cc(N)c(Cl)cc1C(=O)OCCN1CCC(NC(=O)CCCCCN2C(=O)c3cccc4c(N)ccc(c34)C2=O)CC1 [ML10302 scaffold, 9{a;y}] | 4 | 111 | 
COc1cc(N)c(Cl)cc1C(=O)OCCN1CCC(NC(=O)CCCNCCCc2ccc(CCCNCCCC(=O)NC3CCN(CCOC(=O)c4cc(Cl)c(N)cc4OC)CC3)cc2)CC1 [ML10302 scaffold, 14] |  |  | 9000

Reference: BindingDB's records for doi:10.1021/jm801327q (Cnrs, 2009)
